Experimental data as given in ChEMBL document CHEMBL5241131, “2-Anilino-4-(1-methyl-1H-pyrazol-4-yl)pyrimidine-derived CDK2 inhibitors as anticancer agents: Design, synthesis & evaluation” (Bioorg Med Chem, 2023).
pKi: −log10 of the molar value.

target: Cyclin-dependent kinase 1/cyclin B (Homo sapiens) (UniProt P06493+P14635+Q8WWL7+O95067); experiment: Inhibition of CDK1/Cyclin B (unknown origin) at 1 uM incubated for 30 to 60 mins presence of dithiothreitol by Cheng-Prusoff equation analysis relative to control; assay type: protein-complex assay; settings: time 30-60 min

Compared with `Cn1cc(-c2cc(N)nc(Nc3cccc(S(N)(=O)=O)c3)n2)cn1`, `Nc1cc(-c2cnn(Cc3ccccc3)c2)nc(Nc2cccc(S(N)(=O)=O)c2)n1` is higher in inhibition: 4% for the first, 6% for the second.

Going from `Cn1cc(-c2nc(Nc3cccc([N+](=O)[O-])c3)ncc2F)cn1` to `Cn1cc(-c2nc(Nc3cccc([N+](=O)[O-])c3)ncc2Cl)cn1`, the inhibition falls from 54% to 24%.

Compared with `Cn1cc(-c2nc(Nc3cccc(S(=O)(=O)C(F)(F)F)c3)ncc2Cl)cn1`, `Cn1cc(-c2nc(Nc3cccc(S(=O)(=O)C(F)(F)F)c3)ncc2F)cn1` is higher in inhibition: 2% for the first, 42% for the second.

Going from `Cn1nccc1-c1nc(Nc2cccc(S(N)(=O)=O)c2)ncc1F` to `Cn1cc(-c2nc(Nc3cccc(Cl)c3)ncc2F)cn1`, the inhibition falls from 65% to 50%.

Compared with `Cn1cc(-c2nc(Nc3ccc(C(F)(F)F)c(Cl)c3)ncc2F)cn1`, `Cn1cc(-c2nc(Nc3ccc(F)c(C(F)(F)F)c3)ncc2F)cn1` is higher in inhibition: 8% for the first, 22% for the second.

`Cn1cc(-c2nc(Nc3ccc(S(=O)(=O)C(F)(F)F)cc3)ncc2F)cn1` was tested, and the inhibition was 54%.

system: A2780; experiment: Antiproliferative activity against human A2780 cells assessed as inhibition of cell growth incubated for 72 hrs by MTT assay; assay type: functional; settings: not given

Going from `Cn1cc(-c2nc(Nc3cccc([N+](=O)[O-])c3)ncc2F)cn1` to `Cn1cc(-c2nc(Nc3cccc([N+](=O)[O-])c3)ncc2Cl)cn1`, the GI50 falls from 113 nM to 7 nM (16-fold).

First: Cn1cc(-c2nc(Nc3cccc(S(=O)(=O)C(F)(F)F)c3)ncc2Cl)cn1
Second: Cn1cc(-c2nc(Nc3cccc(S(=O)(=O)C(F)(F)F)c3)ncc2F)cn1
The GI50 of the first is 1.7-fold lower: 125 nM for the first, 215 nM for the second.

target: CDK9/cyclin T1 (Homo sapiens) (UniProt O60563+P50750); experiment: Inhibition of CDK9/cyclin T1 (unknown origin) at 1 uM incubated for 30 to 60 mins presence of dithiothreitol by Cheng-Prusoff equation analysis relative to control; assay type: protein-complex assay; settings: time 30-60 min

First: Cn1cc(-c2cc(N)nc(Nc3cccc(S(N)(=O)=O)c3)n2)cn1
Second: Nc1cc(-c2cnn(Cc3ccccc3)c2)nc(Nc2cccc(S(N)(=O)=O)c2)n1
The inhibition of the first is higher: 57% for the first, 40% for the second.

Compared with `Cn1cc(-c2nc(Nc3cccc(S(=O)(=O)C(F)(F)F)c3)ncc2Cl)cn1`, `Cn1cc(-c2nc(Nc3cccc(S(=O)(=O)C(F)(F)F)c3)ncc2F)cn1` is lower in inhibition: 45% for the first, 20% for the second.

First: Cn1nccc1-c1nc(Nc2cccc(S(N)(=O)=O)c2)ncc1F
Second: Cn1cc(-c2nc(Nc3cccc(Cl)c3)ncc2F)cn1
The inhibition of the first is lower: 59% for the first, 69% for the second.

Compared with `Cn1cc(-c2nc(Nc3cccc([N+](=O)[O-])c3)ncc2Cl)cn1`, `Cn1cc(-c2nc(Nc3ccc(C(F)(F)F)c(Cl)c3)ncc2F)cn1` is lower in inhibition: 73% for the first, 39% for the second.

Compared with `Cn1cc(-c2nc(Nc3ccc(F)c(C(F)(F)F)c3)ncc2F)cn1`, `Cn1cc(-c2nc(Nc3ccc(S(=O)(=O)C(F)(F)F)cc3)ncc2F)cn1` is lower in inhibition: 51% for the first, 6% for the second.

system: A2780; experiment: Antiproliferative activity against human A2780 cells assessed as inhibition of cell growth at 1 uM incubated for 72 hrs by MTT assay; assay type: functional; parameters: scale not given: the % may be the effect or the level left; settings: not given

`Cn1cc(-c2cc(N)nc(Nc3cccc(S(N)(=O)=O)c3)n2)cn1` and `Nc1cc(-c2cnn(Cc3ccccc3)c2)nc(Nc2cccc(S(N)(=O)=O)c2)n1` are the same in Activity: 0% for the first, 0% for the second.

First: Cn1cc(-c2nc(Nc3cccc(S(=O)(=O)C(F)(F)F)c3)ncc2Cl)cn1
Second: Cn1cc(-c2nc(Nc3ccc(S(=O)(=O)C(F)(F)F)cc3)ncc2F)cn1
The Activity of the first is higher: 63% for the first, 54% for the second.

Compared with `Cn1nccc1-c1nc(Nc2cccc(S(N)(=O)=O)c2)ncc1F`, `Cn1cc(-c2nc(Nc3cccc(Cl)c3)ncc2F)cn1` is higher in Activity: 0% for the first, 12% for the second.

Compared with `Cn1cc(-c2nc(Nc3ccc(C(F)(F)F)c(Cl)c3)ncc2F)cn1`, `Cn1cc(-c2nc(Nc3ccc(F)c(C(F)(F)F)c3)ncc2F)cn1` is lower in Activity: 32% for the first, 28% for the second.

target: Cyclin-dependent kinase 2/cyclin E (Homo sapiens) (UniProt P24864+P24941+O96020); experiment: Inhibition of CDK2/cyclin E (unknown origin) at 1 uM incubated for 30 to 60 mins presence of dithiothreitol by Cheng-Prusoff equation analysis relative to control; assay type: protein-complex assay; settings: time 30-60 min

Going from `Cn1cc(-c2cc(N)nc(Nc3cccc(S(N)(=O)=O)c3)n2)cn1` to `Nc1cc(-c2cnn(Cc3ccccc3)c2)nc(Nc2cccc(S(N)(=O)=O)c2)n1`, the inhibition rises from 13% to 53%.

Going from `Cn1cc(-c2nc(Nc3cccc(S(=O)(=O)C(F)(F)F)c3)ncc2Cl)cn1` to `Cn1cc(-c2nc(Nc3cccc(S(=O)(=O)C(F)(F)F)c3)ncc2F)cn1`, the inhibition falls from 53% to 1%.

Going from `Cn1cc(-c2nc(Nc3cccc([N+](=O)[O-])c3)ncc2Cl)cn1` to `Cn1cc(-c2nc(Nc3cccc(Cl)c3)ncc2F)cn1`, the inhibition rises from 48% to 57%.

First: Cn1cc(-c2nc(Nc3ccc(C(F)(F)F)c(Cl)c3)ncc2F)cn1
Second: Cn1cc(-c2nc(Nc3ccc(F)c(C(F)(F)F)c3)ncc2F)cn1
The inhibition of the first is higher: 10% for the first, 1% for the second.

In the case of `Cn1cc(-c2nc(Nc3ccc(S(=O)(=O)C(F)(F)F)cc3)ncc2F)cn1`, the inhibition was 15%.

target: CDK9/cyclin T1 (Homo sapiens, UniProt P50750); experiment: Inhibition of CDK9/cyclin T1 (unknown origin) assessed as inhibition constant incubated for 30 to 60 mins presence of dithiothreitol by Cheng-Prusoff equation analysis; assay type: protein-complex assay; settings: not given
Sequence (O60563 whole entry): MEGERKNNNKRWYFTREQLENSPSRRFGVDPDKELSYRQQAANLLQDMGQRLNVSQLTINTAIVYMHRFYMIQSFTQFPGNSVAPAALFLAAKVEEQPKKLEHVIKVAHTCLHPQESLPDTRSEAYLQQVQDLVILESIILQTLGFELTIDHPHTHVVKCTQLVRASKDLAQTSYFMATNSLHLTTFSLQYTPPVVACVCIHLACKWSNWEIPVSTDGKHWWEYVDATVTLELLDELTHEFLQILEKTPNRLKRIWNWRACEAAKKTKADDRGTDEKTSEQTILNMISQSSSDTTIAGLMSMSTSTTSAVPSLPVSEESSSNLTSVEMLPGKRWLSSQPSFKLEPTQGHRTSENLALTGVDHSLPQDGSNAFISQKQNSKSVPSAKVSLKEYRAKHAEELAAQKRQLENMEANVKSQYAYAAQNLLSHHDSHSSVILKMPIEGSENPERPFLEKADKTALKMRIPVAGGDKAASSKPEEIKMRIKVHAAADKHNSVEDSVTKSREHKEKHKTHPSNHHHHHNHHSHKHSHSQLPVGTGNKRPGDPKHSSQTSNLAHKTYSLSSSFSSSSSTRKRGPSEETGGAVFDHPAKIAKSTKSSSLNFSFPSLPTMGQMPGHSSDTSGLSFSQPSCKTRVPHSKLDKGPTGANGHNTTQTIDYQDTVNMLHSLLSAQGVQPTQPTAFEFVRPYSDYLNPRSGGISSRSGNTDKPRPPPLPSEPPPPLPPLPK
Sequence (P50750 whole entry): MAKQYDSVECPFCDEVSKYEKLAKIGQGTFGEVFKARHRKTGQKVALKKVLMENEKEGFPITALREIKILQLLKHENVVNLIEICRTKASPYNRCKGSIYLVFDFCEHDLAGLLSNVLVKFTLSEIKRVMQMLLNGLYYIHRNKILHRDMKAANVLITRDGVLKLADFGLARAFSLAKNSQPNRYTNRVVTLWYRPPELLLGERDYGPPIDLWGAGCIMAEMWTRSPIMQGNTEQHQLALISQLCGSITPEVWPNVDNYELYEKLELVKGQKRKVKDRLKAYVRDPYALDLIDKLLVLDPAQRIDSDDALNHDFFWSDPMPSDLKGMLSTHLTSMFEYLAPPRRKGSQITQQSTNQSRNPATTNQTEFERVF

Compound `Cn1cc(-c2nc(Nc3cccc([N+](=O)[O-])c3)ncc2F)cn1` has a pKi of 6.83.

target: Cyclin-dependent kinase 2/cyclin E (Homo sapiens, UniProt P24941); experiment: Inhibition of CDK2/cyclin E (unknown origin) assessed as inhibition constant incubated for 30 to 60 mins presence of dithiothreitol by Cheng-Prusoff equation analysis; assay type: protein-complex assay; settings: not given

`Cn1cc(-c2nc(Nc3cccc([N+](=O)[O-])c3)ncc2F)cn1` and `Cn1cc(-c2nc(Nc3ccc(S(=O)(=O)C(F)(F)F)cc3)ncc2F)cn1` are within 0.2 log units of each other in pKi: 7.06 for the first, 7.15 for the second.

`Cn1nccc1-c1nc(Nc2cccc(S(N)(=O)=O)c2)ncc1F` was tested, and the pKi was 6.77.

target: Cyclin-dependent kinase 5/CDK5 activator 1 (Homo sapiens) (UniProt Q00535+Q15078); experiment: Inhibition of CDK5/p25 (unknown origin) at 1 uM incubated for 30 to 60 mins presence of dithiothreitol by Cheng-Prusoff equation analysis relative to control; assay type: protein-complex assay; settings: time 30-60 min
Sequence (Q00535 whole entry): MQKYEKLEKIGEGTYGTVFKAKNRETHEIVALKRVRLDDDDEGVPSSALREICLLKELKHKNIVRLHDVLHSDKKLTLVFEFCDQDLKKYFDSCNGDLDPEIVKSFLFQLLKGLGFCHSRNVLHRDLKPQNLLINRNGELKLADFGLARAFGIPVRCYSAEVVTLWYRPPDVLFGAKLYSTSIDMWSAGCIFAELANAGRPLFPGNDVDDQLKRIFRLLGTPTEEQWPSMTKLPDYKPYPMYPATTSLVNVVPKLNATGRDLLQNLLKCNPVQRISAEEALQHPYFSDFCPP
Sequence (Q15078 99-307 partner limits assumed): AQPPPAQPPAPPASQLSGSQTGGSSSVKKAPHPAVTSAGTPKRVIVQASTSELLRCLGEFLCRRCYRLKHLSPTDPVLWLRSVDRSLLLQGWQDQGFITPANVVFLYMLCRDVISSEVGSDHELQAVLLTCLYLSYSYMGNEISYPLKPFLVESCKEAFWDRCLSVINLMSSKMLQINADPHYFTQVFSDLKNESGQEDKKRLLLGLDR

Going from `Cn1cc(-c2cc(N)nc(Nc3cccc(S(N)(=O)=O)c3)n2)cn1` to `Nc1cc(-c2cnn(Cc3ccccc3)c2)nc(Nc2cccc(S(N)(=O)=O)c2)n1`, the inhibition falls from 41% to 40%.

Compared with `Cn1cc(-c2nc(Nc3cccc([N+](=O)[O-])c3)ncc2F)cn1`, `Cn1cc(-c2nc(Nc3cccc([N+](=O)[O-])c3)ncc2Cl)cn1` is lower in inhibition: 67% for the first, 56% for the second.

Compared with `Cn1cc(-c2nc(Nc3cccc(S(=O)(=O)C(F)(F)F)c3)ncc2Cl)cn1`, `Cn1cc(-c2nc(Nc3cccc(S(=O)(=O)C(F)(F)F)c3)ncc2F)cn1` is lower in inhibition: 58% for the first, 46% for the second.

First: Cn1nccc1-c1nc(Nc2cccc(S(N)(=O)=O)c2)ncc1F
Second: Cn1cc(-c2nc(Nc3cccc(Cl)c3)ncc2F)cn1
The inhibition of the first is higher: 48% for the first, 46% for the second.

First: Cn1cc(-c2nc(Nc3ccc(C(F)(F)F)c(Cl)c3)ncc2F)cn1
Second: Cn1cc(-c2nc(Nc3ccc(F)c(C(F)(F)F)c3)ncc2F)cn1
The inhibition of the first is lower: 3% for the first, 16% for the second.

Work on `Cn1cc(-c2nc(Nc3ccc(S(=O)(=O)C(F)(F)F)cc3)ncc2F)cn1` yielded an inhibition of 46%.
